Key:
[1] = 298.15 K, 101 kPa, Liquid; for viscosity: Capillary tube (Ostwald / Ubbelohde) method; for mass density: Pycnometric method
[2] = xn = mol fraction of the nth substance listed; settings: 298.15 K, 101 kPa, Liquid; for viscosity: Capillary tube (Ostwald / Ubbelohde) method; for mass density: Pycnometric method

CCCCCC(C)O (centres undefined) [2-heptanol]
[1]
Settings	mass density [kg/m3]	viscosity [mPa·s]
–	813.74	5.08

CCCCCC(C)O (centres undefined) [2-heptanol] + CCCCCCCCCC
[2]
Settings	mass density [kg/m3]	viscosity [mPa·s]
x2 = 0	813.74	5.08
x2 = 0.0552	806.87	4.25
x2 = 0.0999	801.55	3.732
x2 = 0.1555	795.15	3.152
x2 = 0.1999	790.26	2.74
x2 = 0.2554	784.36	2.283
x2 = 0.2999	779.83	1.962
x2 = 0.3554	774.4	1.614
x2 = 0.3998	770.24	1.375
x2 = 0.4555	765.23	1.122
x2 = 0.4998	761.41	0.954
x2 = 0.5555	756.8	0.782
x2 = 0.5999	753.27	0.673
x2 = 0.6554	749.04	0.57
x2 = 0.6999	745.79	0.51
x2 = 0.7553	741.87	0.461
x2 = 0.8	738.84	0.44
x2 = 0.8555	735.2	0.432
x2 = 0.8998	732.39	0.438
x2 = 0.9553	728.98	0.457

CCCCC(C)O (centres undefined) [2-hexanol]
[1]
Settings	mass density [kg/m3]	viscosity [mPa·s]
–	810.84	4.105

CCCCC(C)O (centres undefined) [2-hexanol] + CCCCCCCCCC
[2]
Settings	mass density [kg/m3]	viscosity [mPa·s]
x2 = 0	810.84	4.105
x2 = 0.0555	802.94	3.569
x2 = 0.0999	797.23	3.17
x2 = 0.1554	790.5	2.725
x2 = 0.1998	785.43	2.41
x2 = 0.2556	779.42	2.062
x2 = 0.2999	774.91	1.821
x2 = 0.3555	769.55	1.561
x2 = 0.3998	765.52	1.384
x2 = 0.4554	760.72	1.198
x2 = 0.4998	757.1	1.076
x2 = 0.5554	752.79	0.952
x2 = 0.5997	749.54	0.875
x2 = 0.6555	745.66	0.802
x2 = 0.6999	742.72	0.76
x2 = 0.7555	739.25	0.725
x2 = 0.7998	736.62	0.708
x2 = 0.8555	733.48	0.699
x2 = 0.8999	731.11	0.698
x2 = 0.9555	728.29	0.703

CCCCCCC(C)O (centres undefined) [2-octanol]
[1]
Settings	mass density [kg/m3]	viscosity [mPa·s]
–	817.05	6.429

CCCCCCC(C)O (centres undefined) [2-octanol] + CCCCCCCCCC
[2]
Settings	mass density [kg/m3]	viscosity [mPa·s]
x2 = 0	817.05	6.429
x2 = 0.0554	810.77	5.222
x2 = 0.0998	805.83	4.638
x2 = 0.1554	799.74	3.972
x2 = 0.1999	794.99	3.491
x2 = 0.2554	789.2	2.951
x2 = 0.2999	784.67	2.564
x2 = 0.3555	779.16	2.136
x2 = 0.3998	774.9	1.836
x2 = 0.4554	769.69	1.509
x2 = 0.4999	765.64	1.284
x2 = 0.5555	760.74	1.046
x2 = 0.5998	756.94	0.889
x2 = 0.6555	752.3	0.73
x2 = 0.7	748.7	0.63
x2 = 0.7554	744.32	0.538
x2 = 0.7998	740.91	0.487
x2 = 0.8554	736.74	0.45
x2 = 0.8999	733.47	0.438
x2 = 0.9554	729.48	0.445

CCCCCCCCCC [decane]
[1]
Settings	mass density [kg/m3]	viscosity [mPa·s]
–	726.35	0.845

CCCCCCCCCC [decane] + CCCCC(C)O
[2], x1 = 1
Settings	mass density [kg/m3]	viscosity [mPa·s]
–	726.35	0.845

CCCCCCCCCC [decane] + CCCCCC(C)O
[2], x1 = 1
Settings	mass density [kg/m3]	viscosity [mPa·s]
–	726.35	0.845

CCCCCCCCCC [decane] + CCCCCCC(C)O
[2], x1 = 1
Settings	mass density [kg/m3]	viscosity [mPa·s]
–	726.35	0.845
